Reference: patent US6432426B1, “Non-staining topical iodine composition and method” (Symbollon Corporation, priority 1998, dated 2002)
Several values for one entry are separate records, joined by “and”; a condition that tells them apart may be missing. Identical values can stand only once.

Assays:
[1] = Concentration of molecular iodine in a saturated solution; assay type: physicochemical; conditions: pH of 4.5
Procedure: 5. […] A saturated solution of molecular iodine was prepared at a pH of 4.5. The concentration of molecular iodine was measured to be 320 ppm and the concentration of triiodide was determined to be less than 5 ppm. A 1.0 dram vial containing four mL of the saturated iodine solution was contacted with the forearm of a subject and then the forearm was inverted to initiate contact of the sample with the molecular iodine solution. The samples were contacted with the arm for 30 seconds. After contact the treated arm was flushed with water for 15 seconds and dried.

[2] = Sub dermal penetration of iodine measured by iodine analysis of 24 hour urine; assay type: in vivo, human; conditions: 300 ppm molecular iodine applied to skin 4 times over six hours; lines = Subjects 1-3 (prior: 95, 114, 106); listed as I2
Procedure: 11. The 300 ppm samples of molecular iodine described in Example 1 was used to confirm that molecular iodine will penetrate into skin and permeate into the skin to provide sub dermal tissue penetration.
Application of the iodine solution onto skin was performed as described in Example 1 above with two exceptions: (1) the contacted area was flushed with water for 15 seconds immediately after following contact between the iodine solution and skin and (2) the sample was applied to the skin once every 2 hours over a six hour time period (4 applications).
Twenty-four hour urine samples were collected on three subjects for the day immediately prior to the experiment. […] The urine samples were analyzed to determine their total iodine content. Urinary concentrations of total iodide were measured by utilizing the reduction-oxidation reaction between ceric ioni and arsenite ion catalyzed by iodide. […] Arsenious acid was added, the samples were transferred to an autoanalyzer, ceric ammonium sulfate was added “on line” and the optical transmission was measured spectrophometrically at 420 nm. […] If the yellow color fades to colorless (clear) within 1.5 minutes, the iodine content is too high to be measured. […] The % transmission was recorded and the concentration of iodine in each sample was determined by comparison to the standards.

Human Skin = test: Coloration of human skin by a 30 second exposure (vial contact on forearm); hue by Pantone chips, intensity against Brown No. 3 dye; assay type: in vivo; set-up: key to Coloration of human skin: N = no visible staining; L = light staining barely noticeable; S = a clearly visible coloration; conditions: for Coloration of human skin: 30 second exposure, lines = Subjects 1-3
Text: 1. […] Elemental iodine was weighed on an analytical balance and dissolved in one liter of water that had been acidified with 2 drops of 0.1N hydrochloric acid. The concentration of molecular iodine in the water was confirmed by potentiometric analysis (Gottardi, W., 1983. Fresenius Z. Anal. Chem., Vol. 314, pages 582-585). Samples were also titrated with thiosulfate to determine that at least 95% of the theoretical yield of titratable iodine was in the form of molecular iodine as opposed to triiodide. The concentration of molecular iodine was varied from 25 ppm to 330 ppm.
One dram vials (Kimble catalog #60931) were used to deliver 4 mL of the room temperature iodine solutions samples. The vials were placed on the forearm of a subject and then the forearm was inverted to initiate contact of the sample with the iodine solution. The contact area was a circle with a diameter of 1.3 cm. The samples were held on the arm for 30 seconds at room temperature. Three different subjects were used for this experiment. Immediately after the 30 second contact time the arms of the subjects were examined for stains; 10 minutes after the end of the contact time all subjects arms were examined for stains again..
For the purposes of this application, two different parameters were used to characterize the color and intensity of the term stain. The hue of the color imparted to skin was characterized by using the Pantone Color Matching System (Pantone Color Specifier, Pantone Inc., Carlstadt, N.J.) which allows comparison with 1,012 defined colors on two types of paper. Stains from triiodide were matched to the Pantone color chip No. 152C. Short-lived coloration from molecular iodine were matched to the Pantone color chip 1375C.
The intensity of any coloration on skin was characterized by applying an aqueous solution of known concentrations of a food dye, Brown No. 3 (Crompton & Knowles, Mahwah, N.J. —Code DP935159), for 10 seconds using the method described above for application of iodine. Brown No. 3 was applied to the skin at concentrations that ranged from 500 ppm to 30 ppm and the intensity of the color from Brown No. 3 was compared to the intensity of coloration from iodine compositions. For instance, the intensity of color 10 minutes after a 30 second contact with a 600 ppm aqueous triiodide solution was equivalent to the color from a 10 second exposure to a 250 ppm Brown No. 3 solution. In contrast, the intensity of color 10 minutes after a 30 second contact with a 300 ppm aqueous molecular iodine solution was equivalent to the color from a ten second exposure to a 30 ppm Brown No. 3 solution which is barely discernible.

Streptococcus agalactica = test: Residual biocidal effect of skin associated iodine, repeated experiment; assay type: in vivo; conditions: saturated molecular iodine solution (320 ppm)
Pseudomonas aeruginosa = test: as above; assay type: in vivo; conditions: saturated molecular iodine solution (320 ppm)
Candida albicans = test: as above; assay type: in vivo; conditions: saturated molecular iodine solution (320 ppm)
[3] = system: Staphylococcus epidermidis; test: as above; assay type: in vivo; conditions: saturated molecular iodine solution (320 ppm)

## II [Molecular Iodine, molecular iodine]
[1]
  Concentration of molecular iodine in saturated solution: 320 ppm
[2]
  24 Hour Urine iodine, Post I2 Application: 647 ug iodine and 846 ug iodine and 741 ug iodine
Human Skin; 25 ppm molecular iodine, 0 min post contact
  Coloration of human skin: N
Human Skin; 25 ppm molecular iodine, 10 min post contact
  Coloration of human skin: N
Human Skin; 50 ppm molecular iodine, 0 min post contact
  Coloration of human skin: N
Human Skin; 50 ppm molecular iodine, 10 min post contact
  Coloration of human skin: N
Human Skin; 100 ppm molecular iodine, 0 min post contact
  Coloration of human skin: N and L
Human Skin; 100 ppm molecular iodine, 10 min post contact
  Coloration of human skin: N
Human Skin; 200 ppm molecular iodine, 0 min post contact
  Coloration of human skin: S
Human Skin; 200 ppm molecular iodine, 10 min post contact
  Coloration of human skin: N
Human Skin; 300 ppm molecular iodine, 0 min post contact
  Coloration of human skin: S
Human Skin; 300 ppm molecular iodine, 10 min post contact
  Coloration of human skin: N and L
Human Skin; 10 minutes after a 30 second contact with a 300 ppm aqueous molecular iodine solution, barely discernible
  Intensity of color on skin, equivalent Brown No. 3 solution (ten second exposure): 30 ppm
Human Skin; Pantone Color Matching System
  Hue of the color imparted to skin, matched Pantone color chip: 1375C
Streptococcus agalactica
  Residual biocidal efficacy on skin: Efficacy was also demonstrated
Pseudomonas aeruginosa
  Log reduction (smallest observed): 0.5 logs
Candida albicans
  Residual biocidal efficacy on skin: Efficacy was also demonstrated
[3]
  Residual biocidal efficacy on skin: Efficacy was also demonstrated
